Read-outs that look alike come from different tables or passages of the source. Square brackets hold non-standard residues; d marks the D form. Peptide text beside a SMILES is read from it. Dolaproine = CO[C@@H]([C@@H]1CCCN1)[C@@H](C)C(=O)O; Dil = CC[C@H](C)[C@H](NC)[C@@H](CC(=O)O)OC; NMeV = CN[C@H](C(=O)O)C(C)C
Experiments:
SKOV-3 cells = assay: In vitro cytotoxic activity of h1F6 antibody drug conjugates on SKOV-3 cells (CelltiterGlo viability); type: cell-based; details: 96 hours, viability by Promega CelltiterGlo
Method: (See International Patent Publication WO 2006-113909.) The cells were incubated with the following anti-CD70 antibody drug conjugates: h1F6-vc-MMAF(4), h1F6vc-MMAE(4), 1F6mc-MMAF(4), or h1F6mc-MMAF(8) or free MMAF. (See the specification and U.S. Patent Application Publication Nos. 2005-0238649 and 2006-0233794 for a description of the drug linkers. The number in parentheses after each conjugate indicates the average drug loading per antibody.) The SKOV-3 cells were incubated with the conjugates at the indicated concentrations for 96 hours. For these studies, viability was determined using Promega CelltiterGlo.

[1] = system: native CD70 protein (modified cynomolgus CD70); assay: Binding of h1F6 to native CD70 on transfected pancreatic cell lines; details: transfected HPAFII, PANC-1 and MiaPaCa-2 cell lines

CC[C@H](C)[C@@H]([C@@H](CC(=O)N1CCC[C@H]1[C@H](OC)[C@@H](C)C(=O)N[C@@H](Cc1ccccc1)C(=O)O)OC)N(C)C(=O)[C@@H](NC(=O)[C@@H](NC)C(C)C)C(C)C [MMAF, dovaline-valine-dolaisoleunine-dolaproine-phenylalanine, reference compound] (H-[NMeV]V[Dil][Dolaproine]F-OH)
IC50 (SKOV-3 cells; free MMAF, read-out: IC50): 18 nM

h1F6: humanized form of anti-CD70 monoclonal antibody 1F6, binds native CD70
binding to native CD70 protein [1]: binds

B1: h1F6mc-MMAF(8) (conjugate, chains of the INN, looked up)
VH: QVQLVQSGAEVKKPGASVKVSCKASGYTFTNYGMNWVRQAPGQGLKWMGWINTYTGEPTYADAFKGRVTMTRDTSISTAYMELSRLRSDDTAVYYCARDYGDYGMDYWGQGTTVTVSS
VL: DIVMTQSPDSLAVSLGERATINCRASKSVSTSGYSFMHWYQQKPGQPPKLLIYLASNLESGVPDRFSGSGSGTDFTLTISSLQAEDVAVYYCQHSREVPWTFGQGTKVEIK
modifications: maleimidocaproyl-MMAF, 8 drugs per antibody
IC50 (SKOV-3 cells): 12 ng/mL

From patent US9120854B2, “Detection and treatment of pancreatic, ovarian and other cancers” (SEATTLE GENETICS, INC., priority 2008, dated 2015)
